# Data published in US12389908B2, “Fungicide composition for controlling Zymoseptoria infection in plant” (priority 2019, dated 2025).
# Tests used:
# [1] = test system: Zymoseptoria tritici strain Zt Tri-R6; test: Preventive treatment of wheat plants, inoculated leaf fragments (detached leaf test), necrosis length / AUDPC; type: in vivo
# Procedure: A study was conducted to evaluate efficacy of multi-site fungicide (Captan) on zymoSeptoria tritici pathogen. Winter wheat plants cv. Alixan (Limagrain) at the BBCH 12 growth stage were treated with a hand sprayer at 2 bars calibrated to deliver the equivalent of 200 L/ha. Three replicates (pots) of 6 wheat plants each are used for all conditions tested. After treatment, wheat plants are left to dry at room temperature for 1 hour and then placed in a climatic chamber.
# Twenty-four hours after treatments, 5-cm fragments of the first leaf are cut and transferred on 90-mm diameter Petri dish containing water agar supplemented with an anti-senescing compound (7 leaf fragments per Petri dish). Leaf fragments are then inoculated with a paint brush dipped into the calibrated pycnospores suspension of Z. tritici strain Mg Tri-R6.
# After inoculation, Petri dishes are placed in adapted climatic conditions.
# Disease assessments are carried out 21 and 28 days post inoculation (dpi) by measuring the length of the necrosis and the total length of the leaf fragment. The intensity of infection is then determined in percent of the total length of the leaf fragment. The values of the intensity of infection obtained are compared by means of the Newman and Keuls test (XL-Stat software, Addinsoft Ltd.).
# The most commonly used method for estimating the Area Under the Disease Progress Curve (AUDPC), the trapezoidal method, is performed. The fungicide efficacy was determined from the intensity of infection and the AUDPC values and expressed in percent of the untreated control.
# [2] = test system: Speckled leaf blotch of wheat (Spetoria Titrici); test: Field trials (Trial 1 and Trial 2) in winter wheat, control of speckled leaf blotch; type: in vivo, Zymoseptoria tritici
# Procedure: Two trials were conducted in Winter wheat/Triticum aestivum (winter), variety ADVISOR, to evaluate the control of Speckled leaf blotch of wheat (Spetoria Titrici) as primary target. All products were applied with a knapsack sprayer using compressed air as the propellant. The sprayer was equipped with a boom and flat fan nozzles, and calibrated to apply a homogeneous spray volume at a constant pressure.
# Application method: Application A: At the beginning of disease attack and Application B: Renew the application when new disease attack occurs in the best plots, 3 weeks after application A (at least 2 weeks, at the most 4 weeks).
# [3] = Dose 1600 g a.i./ha, strain Zt Tri-R6, wheat leaf fragments treated preventively
compound,measurement,setting,value
O=C1C2CC=CCC2C(=O)N1SC(Cl)(Cl)Cl (stereo not drawn) [Captan],efficiency,"[1]; 800 g/ha, strain Zt Tri-R6",77%
same,inhibition of the development of the Z. tritici strain into wheat leaf tissues,"[1]; 1600, 2400 and 3200 g/ha",almost completely inhibits
same,Fungicide efficacy against Zymoseptoria tritici (% Control),"[1]; Dose 800 g a.i./ha, strain Zt Tri-R6, wheat leaf fragments treated preventively",77.9 % Control
same,Fungicide efficacy against Zymoseptoria tritici (% Control),[1]; [3],96.0 % Control
same,Fungicide efficacy against Zymoseptoria tritici (% Control),"[1]; Dose 2400 g a.i./ha, strain Zt Tri-R6, wheat leaf fragments treated preventively",97.0 % Control
same,Fungicide efficacy against Zymoseptoria tritici (% Control),"[1]; Dose 3200 g a.i./ha, strain Zt Tri-R6, wheat leaf fragments treated preventively",100 % Control
same,effectiveness for controlling Septoria tritici,[1]; conclusion from Tables 1 to 5,effective for controlling Septoria tritici
same,fungicidal efficacy against Zymoseptoria tritici strain Zt Tri-R6,[1]; lowest rate of 800 g/ha,very good fungicidal efficacy
same,Fungicide efficacy against Zymoseptoria tritici (% Control),"[2]; Trial 1, winter wheat field, rate 1.8 L/ha, 28 DA-B (first 28 DA-B column)",32.4 % Control
same,Fungicide efficacy against Zymoseptoria tritici (% Control),"[2]; Trial 1, winter wheat field, rate 1.8 L/ha, 28 DA-B (second 28 DA-B column)",24.5 % Control
same,Fungicide efficacy against Zymoseptoria tritici (% Control),"[2]; Trial 2, winter wheat field, rate 1.8 L/ha, 26 DA-A",41.3 % Control
same,Fungicide efficacy against Zymoseptoria tritici (% Control),"[2]; Trial 2, winter wheat field, rate 1.8 L/ha, 40 DA-A (first 40 DA-A column)",31.9 % Control
same,Fungicide efficacy against Zymoseptoria tritici (% Control),"[2]; Trial 2, winter wheat field, rate 1.8 L/ha, 40 DA-A (second 40 DA-A column)",25.7 % Control
N#Cc1c(Cl)c(Cl)c(Cl)c(C#N)c1Cl [Chlorothalonil],Fungicide efficacy against Zymoseptoria tritici (% Control),"[1]; Dose 750 g a.i./ha, strain Zt Tri-R6, wheat leaf fragments treated preventively",69.2 % Control
CC1COC(Cn2cncn2)(c2ccc(Oc3ccc(Cl)cc3)cc2Cl)O1 (stereo not drawn) [Difenoconazole],Fungicide efficacy against Zymoseptoria tritici (% Control),"[1]; Table 2, from AUDPC values, dose 25 g a.i./ha, strain Zt Tri-R6",81.8 % Control
OC(Cc1ccccc1Cl)(Cn1nc[nH]c1=S)C1(Cl)CC1 (stereo not drawn) [Prothioconazole],Fungicide efficacy against Zymoseptoria tritici (%),"[1]; Table 3, from AUDPC values, dose 30 g a.i./ha, strain Zt Tri-R6",68.2%
same,Fungicide efficacy against Zymoseptoria tritici (%),"[1]; Table 4, from AUDPC values, dose 22.5 g a.i./ha, strain Zt Tri-R6",62.9%
same,Fungicide efficacy against Zymoseptoria tritici (% Control),"[2]; Trial 1, winter wheat field, rate 0.31 L/ha, 28 DA-B (first 28 DA-B column)",31.2 % Control
same,Fungicide efficacy against Zymoseptoria tritici (% Control),"[2]; Trial 1, winter wheat field, rate 0.31 L/ha, 28 DA-B (second 28 DA-B column)",28.8 % Control
same,Fungicide efficacy against Zymoseptoria tritici (% Control),"[2]; Trial 2, winter wheat field, rate 0.31 L/ha, 26 DA-A",42.3 % Control
same,Fungicide efficacy against Zymoseptoria tritici (% Control),"[2]; Trial 2, winter wheat field, rate 0.31 L/ha, 40 DA-A (first 40 DA-A column)",40.7 % Control
same,Fungicide efficacy against Zymoseptoria tritici (% Control),"[2]; Trial 2, winter wheat field, rate 0.31 L/ha, 40 DA-A (second 40 DA-A column)",58.4 % Control
S1SSSSSSS1 [sulphur],Fungicide efficacy against Zymoseptoria tritici (% Control),"[1]; Dose 4200 g a.i./ha, strain Zt Tri-R6, wheat leaf fragments treated preventively",65.8 % Control
Mancozeb,Fungicide efficacy against Zymoseptoria tritici (% Control),[1]; [3],21.0 % Control
